In paper PMC12053652, “Transport and inhibition mechanisms of human creatine transporter” (Cell Discovery, 2025):

T1: human creatine transporter (CRT) (Homo sapiens, UniProt P48029)
T1 construct: gene SLC6A8; full-length wild-type
T1 sequence (P48029 1-635): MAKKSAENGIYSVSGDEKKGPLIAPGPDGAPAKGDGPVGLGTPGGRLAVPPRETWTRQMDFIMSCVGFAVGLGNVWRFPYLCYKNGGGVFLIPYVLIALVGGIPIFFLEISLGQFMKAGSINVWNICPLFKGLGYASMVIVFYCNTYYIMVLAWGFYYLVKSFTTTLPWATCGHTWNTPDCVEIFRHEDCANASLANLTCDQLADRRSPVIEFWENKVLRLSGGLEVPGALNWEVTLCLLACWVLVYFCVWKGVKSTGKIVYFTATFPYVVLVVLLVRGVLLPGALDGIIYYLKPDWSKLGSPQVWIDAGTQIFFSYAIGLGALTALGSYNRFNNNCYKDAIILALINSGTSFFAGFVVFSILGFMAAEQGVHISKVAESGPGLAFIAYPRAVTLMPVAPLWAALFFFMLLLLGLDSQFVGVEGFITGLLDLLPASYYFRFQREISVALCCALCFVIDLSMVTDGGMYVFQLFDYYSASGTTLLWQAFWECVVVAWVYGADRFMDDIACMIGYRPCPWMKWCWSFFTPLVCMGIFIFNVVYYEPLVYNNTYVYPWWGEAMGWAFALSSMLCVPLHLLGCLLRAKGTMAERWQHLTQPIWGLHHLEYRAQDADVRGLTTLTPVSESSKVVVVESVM


Experiments:
[1] = target: T1, human creatine transporter (CRT); experiment: cryo-EM structure ([…] Å); IC50 from […]creatine uptake inhibition in HEK293 cells; type: cell-based
[2] = substrate: CN(CC(=O)O)C(=N)N; experiment: cells, lysate or membranes; type: cell-based, Homo sapiens; details: Na+ and Cl- (Na+[…] and Cl- in the structure) central binding site; Tyr148, Ser417, Ala69, Phe315, Gly73; guanidine group surrounded by Phe68, Tyr148, Phe315; contacts Na+[…]

IC50 [1] [µM]	Molecule	Km [2] [µM]
53	N=C(N)NCCC(=O)O [RGX, RGX-202]	
	human creatine transporter (CRT) (Homo sapiens) (protein, full-length wild-type) MAKKSAENGIYSVSGDEKKGPLIAPGPDGAPAKGDGPVGLGTPGGRLAVPPRETWTRQMDFIMSCVGFAVGLGNVWRFPYLCYKNGGGVFLIPYVLIALVGGIPIFFLEISLGQFMKAGSINVWNICPLFKGLGYASMVIVFYCNTYYIMVLAWGFYYLVKSFTTTLPWATCGHTWNTPDCVEIFRHEDCANASLANLTCDQLADRRSPVIEFWENKVLRLSGGLEVPGALNWEVTLCLLACWVLVYFCVWKGVKSTGKIVYFTATFPYVVLVVLLVRGVLLPGALDGIIYYLKPDWSKLGSPQVWIDAGTQIFFSYAIGLGALTALGSYNRFNNNCYKDAIILALINSGTSFFAGFVVFSILGFMAAEQGVHISKVAESGPGLAFIAYPRAVTLMPVAPLWAALFFFMLLLLGLDSQFVGVEGFITGLLDLLPASYYFRFQREISVALCCALCFVIDLSMVTDGGMYVFQLFDYYSASGTTLLWQAFWECVVVAWVYGADRFMDDIACMIGYRPCPWMKWCWSFFTPLVCMGIFIFNVVYYEPLVYNNTYVYPWWGEAMGWAFALSSMLCVPLHLLGCLLRAKGTMAERWQHLTQPIWGLHHLEYRAQDADVRGLTTLTPVSESSKVVVVESVM	106.3
